Test results as given in patent US12209145B2, “PCSK9 antagonist compounds” (Merck Sharp & Dohme LLC, priority 2018, dated 2025).
pKi: −log10 of the molar value.

Tests used:
Type in all cases: binding
PCSK9 [1] = biological target: T1, PCSK9 (Homo sapiens, UniProt Q8NBP7); assay: PCSK9 Alexa FRET Ultra TR-FRET assay (displacement of AlexaFluor647 tagged cyclic peptide); conditions: Ki Ultra, 0.5 nM biotinylated PCSK9, 960 nM AF cyclic peptide; Ki calculated from IC50 and KD of AF peptide
T1 construct: Biotinylated PCSK9 was obtained commercially; purchased
Outline: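 Biotinylated PCSK9 (0.5 nM final) with 1.25 nM Strep-Eu and 960 nM AlexaFluor-tagged cyclic peptide in HEPES pH 7.4, NaCl, CaCl2, BSA, P20; ≥2 h at room temperature. IC50 from sigmoidal fit, converted to Ki (nM) using peptide KD; falling Eu counts flag false positives.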

PCSK9 [2] = biological target: T1, PCSK9; assay: PCSK9 Alexa FRET Plus TR-FRET assay (displacement of AlexaFluor647 tagged cyclic peptide Reagent B); conditions: Ki Plus, 0.5 nM biotinylated PCSK9, 960 nM AF cyclic peptide Reagent B; Ki calculated from IC50 and KD of AF peptide
Outline: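 TR-FRET displacement using 0.5 nM biotinylated PCSK9 with 1.25 nM streptavidin-Eu and 960 nM AlexaFluor-tagged cyclic peptide in pH 7.4 HEPES with CaCl2, at least 2 h at RT. IC50 from sigmoidal fit, converted to Ki using the peptide KD; falling Eu counts flag false positives.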

PCSK9 [3] = biological target: T1, PCSK9; assay: PCSK9 Alexa FRET Standard TR-FRET assay (displacement of AlexaFluor647 tagged cyclic peptide Reagent A)
Protocol: The following is a description of the assays used to determine activity of compounds of the invention, and any comparator compounds reported, toward PCSK9 antagonism. Biotinylated PCSK9 was obtained commercially.
Alexa FRET Standard TR-FRET
A solution containing 1 nM biotinylated PCSK9+2.5 nM Lance Streptavidin Europium (Strep-Eu) is made in 50 mM HEPES pH 7.4, 0.15 M NaCl, 5 mM CaCl2, 0.01% BSA, and 0.01% Surfactant P20. A separate solution containing 40 nM of the AlexaFluor tagged cyclic peptide is made in the same buffer system. An Echo is used to transfer 0.750 ul of compound to an assay plate followed by the addition of 15 ul of PCSK9+Stept-Eu and 15 ul of AF peptide. The final assay volume is 30.750 ul containing 0.5 nM PCSK9, 1.25 nM Strep-Eu, and 20 nM AF cyclic peptide. The reaction is incubated at room temperature for at least two hours prior to fluorescence measurements using an Envision Multilabel Reader. […] values are determined by fitting data to a sigmoidal dose-response curve using nonlinear regression. Ki is then calculated from the IC50 and the KD of AF cyclic peptide. Counts (B-counts) of the europium-labeled PCSK9 are followed to observe if compounds are adversely PCSK9. A fall off of the B-counts likely indicates a false positive of inhibition. Data from this procedure is reported as “A=‘numerical value’ (nanomolar)”
Activity data obtained by one or both of the above-described procedures is reported for selected example compounds of the invention in the following format: Example No.: A (standard TR Fret)=‘numerical value’; P (Alexa Fret plus standard TR Fret)=‘numerical value’/, note that all values reported are nanomolar.

T1 sequence (Q8NBP7 153-692): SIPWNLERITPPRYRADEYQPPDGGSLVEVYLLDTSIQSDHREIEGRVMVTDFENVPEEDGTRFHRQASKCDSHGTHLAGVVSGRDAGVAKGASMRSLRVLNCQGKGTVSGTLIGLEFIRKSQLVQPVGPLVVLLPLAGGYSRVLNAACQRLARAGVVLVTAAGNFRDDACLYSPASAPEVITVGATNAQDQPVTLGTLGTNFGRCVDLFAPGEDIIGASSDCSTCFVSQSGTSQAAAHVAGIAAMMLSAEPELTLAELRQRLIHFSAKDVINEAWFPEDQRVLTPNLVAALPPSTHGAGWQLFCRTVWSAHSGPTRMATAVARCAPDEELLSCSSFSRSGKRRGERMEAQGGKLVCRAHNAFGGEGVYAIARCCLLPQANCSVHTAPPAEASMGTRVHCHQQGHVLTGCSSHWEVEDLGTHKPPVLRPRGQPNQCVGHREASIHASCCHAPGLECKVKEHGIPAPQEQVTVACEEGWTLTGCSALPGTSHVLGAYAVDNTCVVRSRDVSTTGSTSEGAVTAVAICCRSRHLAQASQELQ

## COCC[N+](C)(C)CCCCCC(=O)NC[C@H]1NC(=O)[C@H](C)NC(=O)CCC(=O)N2CCCCCCn3cc(c4cc(F)ccc43)C[C@@H]3NC(=O)[C@H](Cc4cccc(c4)CNC(=O)CO[C@H]4CCN(C3=O)[C@@H]4C(=O)N[C@@H]([C@@H](C)O)C(=O)N[C@@H](Cc3ccc(OC)cc3)C(=O)N3CCC[C@@]3(C)C(=O)NCCc3ccc(cc3)C2)NC1=O [Ex-58]
PCSK9 [1]
  pKi: 11.71
PCSK9 [2]
  pKi: 11.11
PCSK9 [3]
  pKi: > 8.90
